Target: T1, human kinase Mps-1 (Homo sapiens, UniProt P33981)
T1 construct: N-terminally GST-tagged human full length recombinant Mps-1 kinase; GST (N); purchased Invitrogen, Karslruhe, Germany PV4071
T1 sequence (P33981 1-857): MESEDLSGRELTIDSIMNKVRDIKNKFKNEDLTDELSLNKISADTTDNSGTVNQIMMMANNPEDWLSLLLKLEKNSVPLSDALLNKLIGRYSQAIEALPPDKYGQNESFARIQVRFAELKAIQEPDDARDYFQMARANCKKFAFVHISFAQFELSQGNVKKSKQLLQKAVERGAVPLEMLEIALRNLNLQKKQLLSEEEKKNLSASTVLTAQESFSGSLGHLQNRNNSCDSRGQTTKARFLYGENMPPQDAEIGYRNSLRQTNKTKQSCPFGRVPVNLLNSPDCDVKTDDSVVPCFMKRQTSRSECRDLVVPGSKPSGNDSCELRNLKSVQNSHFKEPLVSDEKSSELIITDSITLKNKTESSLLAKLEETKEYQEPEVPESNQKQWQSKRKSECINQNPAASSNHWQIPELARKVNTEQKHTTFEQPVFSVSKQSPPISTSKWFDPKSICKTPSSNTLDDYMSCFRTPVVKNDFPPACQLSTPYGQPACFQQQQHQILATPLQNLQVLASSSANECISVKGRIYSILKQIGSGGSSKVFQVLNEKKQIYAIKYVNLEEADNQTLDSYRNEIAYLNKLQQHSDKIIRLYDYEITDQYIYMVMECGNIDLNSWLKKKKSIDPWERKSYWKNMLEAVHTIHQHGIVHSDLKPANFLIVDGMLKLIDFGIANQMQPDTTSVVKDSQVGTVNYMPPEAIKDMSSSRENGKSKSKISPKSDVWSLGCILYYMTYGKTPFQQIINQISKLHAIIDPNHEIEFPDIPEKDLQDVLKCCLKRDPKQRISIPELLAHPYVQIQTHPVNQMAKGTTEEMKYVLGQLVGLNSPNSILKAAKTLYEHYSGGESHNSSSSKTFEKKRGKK
Assay: Mps-1 kinase assay (TR-FRET)
Format: biochemical
Details: GST-tagged human full length recombinant Mps-1; 10 μM ATP; 1 μM peptide substrate; 60 min at 22° C.
Protocol: The human kinase Mps-1 phosphorylates a biotinylated substrate peptide. Detection of the phosphorylated product is achieved by time-resolved fluorescence resonance energy transfer (TR-FRET) from Europium-labelled anti-phospho-Serine/Threonine antibody as donor to streptavidin labelled with cross-linked allophycocyanin (SA-XLent) as acceptor. Compounds are tested for their inhibition of the kinase activity.
N-terminally GST-tagged human full length recombinant Mps-1 kinase (purchased from Invitrogen, Karslruhe, Germany, cat. no PV4071) was used. As substrate for the kinase reaction a biotinylated peptide of the amino-acid sequence […] (C-terminus in amide form, purchased from Biosynthan GmbH, Berlin) was used.
The concentration of Mps-1 in the assay was adjusted to the activity of the enzyme lot and was chosen appropriate to have the assay in the linear range, typical enzyme concentrations were in the range of about 1 nM (final conc. in the 5 μl assay volume).
The resulting mixture was incubated 1 h at 22° C. to allow the binding of the phosphorylated peptide to the anti-phospho(Ser/Thr)-Europium-antibody. Subsequently the amount of phosphorylated substrate was evaluated by measurement of the resonance energy transfer from the Europium-labelled anti-phospho(Ser/Thr) antibody to the Streptavidin-XLent. Therefore, the fluorescence emissions at 620 nm and 665 nm after excitation at 350 nm was measured in a Viewlux TR-FRET reader (PerkinElmer LAS, Rodgau-Jügesheim, Germany). The “blank-corrected normalized ratio” (a Viewlux specific readout, similar to the traditional ratio of the emissions at 665 nm and at 622 nm, in which blank and Eu-donor crosstalk are subtracted from the 665 nm signal before the ratio is calculated) was taken as the measure for the amount of phosphorylated substrate.

| SMILES | IC50 |
| --- | --- |
| O=C(NC1CC1)c1ccc(-c2cnc3c(NCC4CCCO4)nc(-c4ccncc4)cn23)cc1F (stereo not shown) [Example 1-61, N-cyclopropyl-2-fluoro-4-{6-(pyridin-4-yl)-8-[(tetrahydrofuran-2-ylmethyl)amino]imidazo [1,2-a]pyrazin-3-yl} benzamide] | 13.1 nM |
| CC(C)CNc1nc(-c2cccs2)cn2c(-c3ccc(C(=O)NC4CC4)cc3)cnc12 [Example 1-9, N-cyclopropyl-4-{8-[(2-methylpropyl)amino]-6-(thiophen-2-yl)imidazo [1,2-a]pyrazin-3-yl} benzamide] | 8 nM |
| O=C(NC1CC1)c1ccc(-c2cnc3c(NCCC(F)(F)F)nc(-c4ccncc4)cn23)cc1Cl [Example 1-36, 2-chloro-N-cyclopropyl-4-{6-(pyridin-4-yl)-8-[(3,3,3-trifluoropropyl)amino]imidazo[1,2-a]pyrazin-3-yl}benzamide] | 5.9 nM |
| Cn1nccc1CNc1nc(-c2ccncc2)cn2c(-c3ccc(C(=O)NC4CC4)cc3)cnc12 [Example 3-28, N-cyclopropyl-4-[8-{[(1-methyl-1H-pyrazol-5-yl)methyl]amino}-6-(pyridin-4-yl)imidazo [1,2-a]pyrazin-3-yl] benzamide] | 2.8 nM |
| Cn1nccc1-c1cn2c(-c3ccc(C(=O)NC4CC4)cc3)cnc2c(NCC(C)(C)O)n1 [Example 1-97, N-cyclopropyl-4-{8-[(2-hydroxy-2-methylpropyl)amino]-6-(1-methyl-1H-pyrazol-5-yl)imidazo[1,2-a]pyrazin-3-yl}benzamide] | 17.8 nM |
| CC(C)CNc1nc(-c2ccc3c(ccn3C)c2)cn2c(-c3ccc(C(=O)NC4CC4)cc3)cnc12 [Example 1-6, N-cyclopropyl-4-{6-(1-methyl-1H-indol-5-yl)-8-[(2-methylpropyl)amino]imidazo[1,2-a]pyrazin-3-yl}benzamide] | 6.8 nM |
| CCCNc1nc(-c2ccncc2)cn2c(-c3ccc(C(=O)NC4CC4)cc3)cnc12 [Example 3-3, N-cyclopropyl-4-[8-(propylamino)-6-(pyridin-4-yl)imidazo[1,2-a]pyrazin-3-yl]benzamide] | 2.1 nM |
| O=C(NC1CC1)c1ccc(-c2cnc3c(NCCO)nc(-c4ccncc4)cn23)cc1 [Example 3-4, N-cyclopropyl-4-{8-[(2-hydroxyethyl)amino]-6-(pyridin-4-yl)imidazo [1,2-a]pyrazin-3-yl} benzamide] | 11.3 nM |
| Cc1cc(-c2cnc3c(NCCC(F)(F)F)nc(-c4cc[nH]n4)cn23)ccc1C(=O)NC1CC1 [Example 1-77, N-cyclopropyl-2-methyl-4-{6-(1H-pyrazol-3-yl)-8-[(3,3,3-trifluoropropyl)amino]imidazo[1,2-a]pyrazin-3-yl}benzamide] | 3.3 nM |
| COc1cc(C(=O)NC2CC2)ccc1-c1cnc2c(NCCCN)nc(-c3ccncc3)cn12 [Example 1-100, 4-{8-[(3-Aminopropyl)amino]-6-(pyridin-4-yl)imidazo [1,2-a]pyrazin-3-yl}-N-cyclopropyl-3-methoxy-benzamide] | 309 nM |
| CC(C)CNc1nc(C(=O)Nc2ccccc2)cn2c(-c3ccc(C(=O)NC4CC4)cc3)cnc12 [Example 8-1, 3-[4-(cyclopropylcarbamoyl)phenyl]-8-[(2-methylpropyl)amino]-N-phenylimidazo[1,2-a]pyrazine-6-carboxamide] | 67.2 nM |
| CCCCNc1nc(-c2ccncc2)cn2c(-c3ccc(C(=O)NC4CC4)cc3)cnc12 [Example 3-13, 4-[8-(butylamino)-6-(pyridin-4-yl)imidazo [1,2-a]pyrazin-3-yl]-N-cyclopropylbenzamide] | 1.7 nM |
| Cn1nccc1CNc1nc(-c2ccn[nH]2)cn2c(-c3ccc(C(=O)NC4CC4)c(Cl)c3)cnc12 [Example 1-48, 2-chloro-N-cyclopropyl-4-[8-{[(1-methyl-1H-pyrazol-5-yl)methyl]amino}-6-(1H-pyrazol-5-yl)imidazo[1,2-a]pyrazin-3-yl]benzamide] | 42.3 nM |
| Cc1cc(-c2cnc3c(NCC(C)(C)O)nc(Oc4ccccc4)cn23)ccc1C(=O)NC1CC1 [Example 13-4, N-cyclopropyl-4-{8-[(2-hydroxy-2-methylpropyl)amino]-6-phenoxy-imidazo[1,2-a]pyrazin-3-yl}-2-methylbenzamide] | 2 nM |
| CC(C)CNc1nc(-c2ccccc2)cn2c(-c3ccc(C(=O)NC4CC4F)cc3)cnc12 (stereo not shown) [Example 2-2, N-(2-fluorocyclopropyl)-4-{8-[(2-methylpropyl)amino]-6-phenylimidazo [1,2-a]pyrazin-3-yl} benzamide] | 10.1 nM |
| Cc1cc(-c2cnc3c(NCCC(F)(F)F)nc(C4=CCSCC4)cn23)ccc1C(=O)NC1CC1 [Example 1-79, N-cyclopropyl-4-{6-(3,6-dihydro-2H-thiopyran-4-yl)-8-[(3,3,3-trifluoro-propyl)amino]imidazo [1,2-a]pyrazin-3-yl}-2-methylbenzamide] | 2.8 nM |
| Cc1cc(-c2cnc3c(NCC(C)(C)O)nc(Sc4ccccc4)cn23)ccc1C(=O)NC1CC1 [Example 15-1, N-cyclopropyl-4-{8-[(2-hydroxy-2-methylpropyl)amino]-6-(phenylsulfanyl)imidazo[1,2-a]pyrazin-3-yl}-2-methylbenzamide] | < 1 nM |
| CC(C)CNc1nc(Oc2ccccc2)cn2c(-c3ccc(C(=O)NC4CC4)cc3)cnc12 [Example 13-1] | 1 nM |
| Cc1ccc(-c2cn3c(-c4ccc(C(=O)NC5CC5)cc4)cnc3c(NCC(C)C)n2)s1 [Example 1-15, N-cyclopropyl-4-{8-[(2-methylpropyl)amino]-6-(5-methylthiophen-2-yl)imidazo[1,2-a]pyrazin-3-yl}benzamide] | 55.4 nM |
| O=C(NC1CC1)c1ccc(-c2cnc3c(NCCC(F)(F)F)nc(-c4ccncc4)cn23)cc1 [Example 3-22, N-cyclopropyl-4-{6-(pyridin-4-yl)-8-[(3,3,3-trifluoropropyl)amino]imidazo[1,2-a]pyrazin-3-yl}benzamide] | 1.1 nM |
| CC(C)CNc1nc(-c2ccccc2)cn2c(-c3ccc(C(=O)NC4CC4(C)C)cc3)cnc12 (stereo not shown) [Example 2-1, N-(2,2-dimethylcyclopropyl)-4-{8-[(2-methylpropyl)amino]-6-phenylimidazo[1,2-a]pyrazin-3-yl}benzamide] | 162 nM |
| CC(C)CNc1nc(-c2cnn(C)c2)cn2c(-c3ccc(C(=O)NC4CC4)cc3)cnc12 [Example 1-8, N-cyclopropyl-4-{8-[(2-methylpropyl)amino]-6-(1-methyl-1H-pyrazol-4-yl)imidazo[1,2-a]pyrazin-3-yl}benzamide] | 4.6 nM |
| O=C(NC1CC1)c1ccc(-c2cnc3c(NCCC(F)(F)F)nc(-c4ccoc4)cn23)cc1Cl [Example 1-37, 2-chloro-N-cyclopropyl-4-{6-(furan-3-yl)-8-[(3,3,3-trifluoropropyl)amino]imidazo[1,2-a]pyrazin-3-yl}benzamide] | 8.1 nM |
| NCC#CCCNc1nc(-c2ccccc2)cn2c(-c3ccc(C(=O)NC4CC4)cc3)cnc12 [Example 4-1, 4-{8-[(5-Aminopent-3-yn-1-yl)amino]-6-phenylimidazo[1,2-a]pyrazin-3-yl}-N-cyclopropylbenzamide] | 10.8 nM |
| O=C(NC1CC1)c1ccc(-c2cnc3c(NCCC(F)(F)F)nc(C4=CCOCC4)cn23)cc1F [Example 1-56, N-cyclopropyl-4-{6-(3,6-dihydro-2H-pyran-4-yl)-8-[(3,3,3-trifluoro-propyl)amino]imidazo [1,2-a]pyrazin-3-yl}-2-fluorobenzamide] | 8.7 nM |

Source: US20140135319A1, “6-SUBSTITUTED IMIDAZOPYRAZINES FOR USE AS MPS-1 AND TKK INHIBITORS IN THE TREATMENT OF HYPERPROLIFERATIVE DISORDERS” (BAYER INTELLECTUAL PROPERTY GMBH, priority 2010, published 2014)
